The values below come from US8124834B2, “Use of active cytokinin synthase gene” (Riken, priority 2006, dated 2012).

For data set [1], the target named is T1, LOG protein (Oryza sativa subsp. japonica, UniProt Q5ZC82).
T1 sequence (Q5ZC82 1-242): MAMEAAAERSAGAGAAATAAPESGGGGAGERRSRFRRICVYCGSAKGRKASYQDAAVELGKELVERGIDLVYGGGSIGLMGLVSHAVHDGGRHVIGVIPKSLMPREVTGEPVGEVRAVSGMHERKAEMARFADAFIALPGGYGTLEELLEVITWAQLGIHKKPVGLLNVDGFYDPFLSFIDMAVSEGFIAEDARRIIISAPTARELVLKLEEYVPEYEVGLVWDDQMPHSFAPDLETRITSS
The data set is described as follows: Detection of enzyme activity of recombinant LOG protein with cytokinin substrates (HPLC). Type of data set: biochemical. To be noted: 3 μg LOG protein, 50 μM substrate, pH7, 30° C., 2 hours, HPLC absorption at 270 nm. The arrangement: the protein coding region of the LOG gene cDNA was inserted into pCOLD-I (TaKaRa), a His-tag protein expression vector; made in house; host or cells: E. coli BL21(DE3)[pG-Tf2]. The method, then: The following 8 types of cytokinin substrates were used: N^6-(delta-2-isopentenyl)adenine (iP), trans-zeatin (tZ), cis-zeatin (cZ), iP riboside (iPR), tZ riboside (tZR), cZ riboside (cZR), iPR 5′-monophosphate (iPRMP), and tZR 5′-monophosphate (tZRMP). As reaction conditions, 100 μl of a reaction solution containing 50 mM Tris-HCl, 1 mM MgCl2, and a 50 μM substrate, pH7 was incubated at 30° C. for 2 hours. Thereafter, 10 μl of 20% acetic acid was added to the reaction solution to terminate the reaction, and the reaction solution was then centrifuged at 15,000 rpm at a room temperature for 20 minutes. […] For elution, solvent C (100% acetonitrile) and solvent D (2% acetic acid) were used.

For data set [2], the target named is T1, LOG protein. The data set is described as follows: Substrate specificity of LOG protein to nucleotide cytokinin forms and AMP. Type of data set: biochemical. Also noted: the protein coding region of the LOG gene cDNA was inserted into pCOLD-I (TaKaRa), a His-tag protein expression vector; made in house; host or cells: E. coli BL21(DE3)[pG-Tf2]. To be noted: 0.02 μg LOG protein, 100 μM substrate, pH 6.5, 4 minutes (iPRDP, iPRTP: 0.01 μg, 2 minutes). The procedure: The reaction specificity of the LOG protein to a nucleotide cytokinin form was analyzed. […] The following 7 types of substrates were used: iPRMP, tZRMP, dihydrozeatin riboside 5′-monophosphate (DZRMP), cZR 5′-monophosphate (cZRMP), iPR 5′-diphosphate (iPRDP), iPR 5′-triphosphate (iPRTP), and AMP. The reaction conditions are as follows. 0.02 μg of the LOG protein was used for a single reaction, and it was reacted with a 100 μM substrate in 200 μl of a reaction solution containing 50 mM Tris-HCl, 1 mM MgCl2, 1 mM DTT, pH 6.5. Thereafter, 0 minute and 4 minutes after initiation of the reaction, 600 μl of cold acetone was added to the reaction solution to terminate the reaction. The reaction solution was left at rest at −80° C. for 30 minutes, and it was then centrifuged at 15,000 rpm for 20 minutes. Thereafter, a supernatant was dried using a centrifugal thickener. […] Only the injection amount was changed to 50 μl. In the case of iPRDP and iPRTP, the amount of a reaction solution was determined to be 100 μl, the mass of a protein used was determined to be 0.01 μg, and the reaction time was determined to be 2 minutes.

Data set [3] concerns the target T1, LOG protein. Description: Measurement of Km value of LOG protein to iPRMP and tZRMP. Conditions: 0.02 μg LOG protein; for specific activity of the LOG protein: substrate 5-100 μM, pH 6.5. It counts as biochemical. Also noted: the protein coding region of the LOG gene cDNA was inserted into pCOLD-I (TaKaRa), a His-tag protein expression vector; made in house; host or cells: E. coli BL21(DE3)[pG-Tf2]. The method, then:
(§1) In order to obtain the Km value of the LOG protein to typical substrates iPRMP and tZRMP, the following experiment was carried out. 0.02 μg of LOG protein was used for a single reaction, and it was reacted with a substrate in a substrate concentration of each of 5, 8, 15, 30 and 100 μM in 200 μl of a reaction solution containing 50 mM Tris-HCl, 1 mM MgCl2, 1 mM DTT, pH 6.5. Thereafter, 0 minute, 2 minutes and 4 minutes after initiation of the reaction, 600 μl of cold acetone was added to the reaction solution to terminate the reaction. The reaction solution was left at rest at −80° C. for 30 minutes, and it was then centrifuged at 15,000 rpm for 20 minutes. Thereafter, a supernatant was dried using a centrifugal thickener. The resultant was dissolved in 100 μl of 2% acetic acid, and a reaction product was then detected and quantified under the same conditions as those for the liquid chromatography of Example 2. Only the injection amount was changed to 50 μl. The aforementioned experiment was carried out three times, and the Km value was calculated.

Data set [4] concerns AtLOG 1, 2, 3, 4, 5, 7 and 8 proteins. The data set is described as follows: Confirmation of LOG enzyme activity of Arabidopsis thaliana LOG homolog proteins (substrate specificity). Conditions: purified AtLOG 1, 2, 3, 4, 5, 7 and 8 proteins, result stated for all together. It counts as biochemical. The procedure:
3 μg of the recombinant LOG protein obtained in Example 1 was allowed to react with various types of cytokinins used as substrates. The following 8 types of cytokinin substrates were used: N^6-(delta-2-isopentenyl)adenine (iP), trans-zeatin (tZ), cis-zeatin (cZ), iP riboside (iPR), tZ riboside (tZR), cZ riboside (cZR), iPR 5′-monophosphate (iPRMP), and tZR 5′-monophosphate (tZRMP). As reaction conditions, 100 μl of a reaction solution containing 50 mM Tris-HCl, 1 mM MgCl2, and a 50 μM substrate, pH7 was incubated at 30° C. for 2 hours. Thereafter, 10 μl of 20% acetic acid was added to the reaction solution to terminate the reaction, and the reaction solution was then centrifuged at 15,000 rpm at a room temperature for 20 minutes. Thereafter, 20 μl of a supernatant was analyzed by liquid chromatography using HPLC (Waters Alliance 2695/PDA detector 2996). As a column, Symmetry C18, 3.5 μm, 2.1×100 mm cartridge (Waters) was used. For elution, solvent C (100% acetonitrile) and solvent D (2% acetic acid) were used.
The reaction specificity of the LOG protein to a nucleotide cytokinin form was analyzed. At the same time, the presence or absence of the reactivity of the LOG protein to AMP was also analyzed. […] The resultant was dissolved in 100 μl of 2% acetic acid, and the reaction product was then detected and quantified under the same conditions as those for the liquid chromatography of Example 2. […] In the case of iPRDP and iPRTP, the amount of a reaction solution was determined to be 100 μl, the mass of a protein used was determined to be 0.01 μg, and the reaction time was determined to be 2 minutes.
(§2) The enzyme activity of each of the purified AtLOG proteins was evaluated under the same reaction conditions as those of Example 2. […] In addition, the enzyme property of each AtLOG protein to iPRMP was determined in the same manner as in Example 5 (Table 4). In Table 4, the Km, Vmax and Kcat values were calculated based on a reaction under the optimal pH condition of each AtLOG protein.

In data set [5] the target is T1, LOG protein. Conditions: 3 μg LOG protein, 5 mM L-lysine, pH 6.0, 40° C., 60 minutes, HPLC absorption at 226 nm. From the text: As a column, Symmetry C18, 3.5 μm, 2.1×100 mm cartridge (Waters) was used.
Data set [6] can be described thus: Enzyme properties of AtLOG 1, 2, 3, 4, 5, 7 and 8 proteins having iPRMP as substrate. It counts as biochemical, Arabidopsis thaliana. The procedure: as §1, §2

Take `C/C(=C\CNc1ncnc2c1ncn2[C@@H]1O[C@H](COP(=O)(O)O)[C@@H](O)[C@H]1O)CO` (relative stereo) [tZRMP, trans-zeatin riboside 5′-monophosphate]: the “reactivity of the substrate with recombinant LOG protein (conversion to base form)” value in data set [1] was “completely converted”. Besides, in data set [2], the “reactivity of LOG protein to the substrate (substrate specificity)” value is “uses as a substrate”. In addition, the Km in data set [3] (substrate 5, 8, 15, 30 and 100 μM, pH 6.5, experiment carried out three times) was 22 ± 3.6 µM. In addition, the “specific activity of the LOG protein” value in data set [3] is 4.2 μmol/min^−1/mg^−1 protein.
On to `Nc1ncnc2c1ncn2[C@@H]1O[C@H](COP(=O)(O)O)[C@@H](O)[C@H]1O` [AMP], for which the “reactivity of AtLOG proteins to the substrate (substrate specificity)” value (from here on “reactivity of AtLOG proteins”) in data set [4] is given as “almost no reactivity”. In data set [2], the “reactivity of LOG protein to the substrate (substrate specificity)” value was “no reactivity”.
Take `CC(C)=CCNc1ncnc2c1ncn2[C@@H]1O[C@H](COP(=O)(O)OP(=O)(O)O)[C@@H](O)[C@H]1O` [iPRDP, iPR 5′-diphosphate]: in data set [4], the “reactivity of AtLOG proteins” value is given as “almost no reactivity”. For the same molecule, the “reactivity of LOG protein to the substrate (substrate specificity)” value in data set [2] is “no reactivity”.
As to `CC(C)=CCNc1ncnc2c1ncn2[C@@H]1O[C@H](COP(=O)(O)O)[C@@H](O)[C@H]1O` [iPRMP, isopentenyladenine riboside 5′-monophosphate], the “reactivity of the substrate with recombinant LOG protein (conversion to base form)” value in data set [1] is recorded as “completely converted”. Also, in data set [2], the “reactivity of LOG protein to the substrate (substrate specificity)” value was “uses as a substrate”. In addition, the “specific activity of the LOG protein” value in data set [3] is given as 5.6 μmol/min^−1/mg^−1 protein.
In the case of `CC(C)=CCNc1ncnc2c1ncn2[C@@H]1O[C@H](COP(=O)(O)OP(=O)(O)OP(=O)(O)O)[C@@H](O)[C@H]1O` [iPRTP, iPR 5′-triphosphate], the “reactivity of AtLOG proteins” value in data set [4] is on record as “almost no reactivity”. Moreover, the “reactivity of LOG protein to the substrate (substrate specificity)” value in data set [2] is reported as “no reactivity”.
As for `NCCCC[C@H](N)C(=O)O` [lysine, L-lysine], in data set [5], the “reactivity of LOG protein to lysine” value is given as “did not exhibit reactivity”.

B1: AtLOG2: Arabidopsis thaliana LOG homolog protein, gene At2g35990, amino acid sequence SEQ ID NO: 6, purified from E. coli (protein, listed as Arabidopsis sp.)
chain: MEETKSRFRRICVFCGSSSGNKTTYHDAALQLAHQLVERNIDLVYGGGSVGLMGLISQAVHDGGRHVLGIIPKSLAPREITGESIGEVITVSTMHQRKAEMGRQADAFIALPGGYGTFEELLEVITWSQLGIHTKPVGLLNVDGFYDSLLTFIDKAVDEGFVSSTARRIIVSAPNAPQLLQLLEEYVPKHDDFVSKMVWDNTTDAFTLEGDSF
As for B1, the “Optimal pH” value in data set [6] came to 6.5 pH.

B2: AtLOG8: Arabidopsis thaliana LOG homolog protein, gene At5g11950, amino acid sequence SEQ ID NO: 16, purified from E. coli (protein, listed as Arabidopsis sp.)
chain: MEDNQRSRFRKICVFCGSHSGHREVFSDAAIELGNELVKRKIDLVYGGGSVGLMGLISRRVYEGGLHVLGIIPKALMPIEISGETVGDVRVVADMHERKAAMAQEAEAFIALPGGYGTMEELLEMITWSQLGIHKKTVGLLNVDGYYNNLLALFDTGVEEGFIKPGARNIVVSAPTAKELMEKMEEYTPSHMHVASHESWKVEELGDYPGQENKPQ
Turning to B2, in data set [6], the “Optimal pH” value amounted to 7.0 pH.

B3: AtLOG1: Arabidopsis thaliana LOG homolog protein, gene At2g28305, amino acid sequence SEQ ID NO: 4, purified from E. coli (protein, listed as Arabidopsis sp.)
chain: MEIESKFKRICVFCGSSAGNKVSYKDAAIELGTELVSRNIDLVYGGGSIGLMGLISQAVFNGGRHVIGVIPKTLMPREITGETVGEVKAVADMHQRKAEMAKHSDAFIALPGGYGTLEELLEVITWAQLGIHDKPVGLLNVEGYYNSLLSFIDKAVEEGFISPTARHIIVSAPSAKELVKKLEDYVPRHEKVASKKSWEMEQIGLSPTCEISR
Take B3: the “Optimal pH” value in data set [6] stood at 6.5 pH.
